Results reported in patent publication US20140155324A1, “NOVEL PEPTIDES AND USES THEREOF IN THERAPEUTIC METHODS” (TWO TO BIOTECH LTD., priority 2011, published 2014).

Experiments:
Format in all cases: in vivo, C57Bl/6 male mice
[1] = Glucose tolerance test (GTT) after 2 weeks of treatment; settings: mice, 0.25, 1.5 or 15 mg/Kg 3 times a week for 2 weeks; glucose 2 g/Kg i.p., 0-120 min; optimal response at 1.5 mg/Kg; FIG. 1
Procedure: Twenty 7-weeks old C57Bl/6 male mice (per experiment) were purchased from Harlan Biotech (Jerusalem, Israel). All mice were maintained in the animal facility room at the company facility. The mice were given standard laboratory chow and water ad libitum and kept in a 12-hour light/dark cycle. All animal experiments were carried out in accordance with the guidelines of the Israeli authority for animal experiments for Care and Use of Laboratory Animals and with the authority specific approval. At the end of experiment (two weeks) a glucose tolerance test (GTT) was performed. The mice were starved overnight prior to administration of the test. Glucose was injected intraperitoneally (i.p.) (2 g/Kg body weight) and blood glucose levels were measured at time-points 0 min, 15 min, 30 min, 60 min, 90 min and 120 min. Blood glucose was determined by sampling tail vein blood using a standard glucometer. Male C57131/6 mice were divided into four groups of 5 mice each. The control group (Group I) received 5% Mannitol IV (200 μL 3 times a week). Group II received a dose of APC2 (0.25 mg/Kg body weight) 3 times a week. Group III received a dose of APC2 (1.5 mg/Kg body weight) 3 times a week. Group IV received a dose of APC2 (15 mg/Kg body weight) 3 times a week. The mice were treated for 2 weeks. […]

Plasma glucagon assay = settings: mice, 0.25, 1.5 or 15 mg/Kg 3 times a week for 2 weeks; FIG. 2
Procedure: (§1) Twenty 7-weeks old C57Bl/6 male mice (per experiment) were purchased from Harlan Biotech (Jerusalem, Israel). All mice were maintained in the animal facility room at the company facility. The mice were given standard laboratory chow and water ad libitum and kept in a 12-hour light/dark cycle. All animal experiments were carried out in accordance with the guidelines of the Israeli authority for animal experiments for Care and Use of Laboratory Animals and with the authority specific approval.
Mice tail vein was punctured and blood glucose was assayed using a standard glucometer.
(§2) Male C57131/6 mice were divided into four groups of 5 mice each. The control group (Group I) received 5% Mannitol IV (200 μL 3 times a week). Group II received a dose of APC2 (0.25 mg/Kg body weight) 3 times a week. Group III received a dose of APC2 (1.5 mg/Kg body weight) 3 times a week. Group IV received a dose of APC2 (15 mg/Kg body weight) 3 times a week. The mice were treated for 2 weeks.
In addition to GTT, the mice plasma glucagon levels were assayed as described in the Methods section.

insulin receptor = assay: Insulin receptor RNA level in splenocytes of treated mice; settings: mice, 0.25, 1.5 or 15 mg/Kg 3 times a week for 2 weeks; HPRT control; maximal induction at 1.5 mg/Kg; FIG. 3B
Procedure: (§3) Mice were sacrificed and dissected. 15-20 mg of appropriate tissue was taken and stabilized in RNA-Save. RNA was extracted from the tissue using an RNeasy mini kit. Homogenization was performed using a 22G needle and syringe. cDNA was prepared from the RNA using EZ-first strand cDNA synthesis kit for RT-PCR. PCR of samples was performed using GoTaq Green Master Mix using appropriate primers (40 cycles, annealing temperature: 62° C.).
as §2
(§4) At the end of the experiment, the mice were sacrificed, the splenocytes were collected from the different mice groups and the RNA levels of HPRT (control), insulin receptor and GLUT4 were assayed.

GLUT-4 = GLUT-4 RNA level in splenocytes of treated mice; settings: mice, 0.25, 1.5 or 15 mg/Kg 3 times a week for 2 weeks; HPRT control; maximal induction at 1.5 mg/Kg; FIG. 3C
Procedure: as §3, §2, §4

TNFα = assay: Serum TNFα assay (Bio-Plex); settings: mice, 0.25, 1.5 or 15 mg/Kg 3 times a week for 2 weeks; optimal response at 1.5 mg/Kg; FIG. 4A
Procedure: as §1
(§5) Blood was drawn from each mouse and collected separately in a 1.5 ml vial. After 30 min to 1 hr at room temperature, the clotted blood was centrifuged at 300G for 15 minutes at 4° C. The supernatant was collected to a new 1.5 ml vial and centrifuged again at 300G for 15 minutes. The supernatant was collected to a new 1.5 ml vial and frozen at −70° C. for later analysis. When ready for analysis, the blood vials were quickly thawed in a water bath at room temperature, and then centrifuged at 13,000 G for 10 minutes at 4° C. Samples were analyzed according to the Bio-Plex Pro assay instruction manual using a flat bottom black plate.
(§6) Male CS7Bl/6 mice were divided into four groups of 5 mice each. […]
(§7) At the end of the experiment, TNFα and IL-1β were measured in the mice plasma, and the results are presented in FIGS. 4A and 4B, respectively.

IL-1β = assay: Serum IL-1β assay (Bio-Plex); settings: mice, 0.25, 1.5 or 15 mg/Kg 3 times a week for 2 weeks; optimal response at 1.5 mg/Kg; FIG. 4B
Procedure: as §1, §5, §6, §7

APC-2: isolated polypeptide of SEQ ID NO. 1, hormone-like protein expressed in human heart and lymphocytes (MITSWFSLLPGSQEATATPPFPVVAGRKH; Homo sapiens APC2)
glucose tolerance (blood glucose levels after i.p. glucose) [1]: improved glucose tolerance in a dose-dependent manner | plasma glucagon levels (Plasma glucagon assay): reduced in a dose-dependent manner | insulin receptor RNA levels in splenocytes (insulin receptor): up-regulated | GLUT4 RNA levels in splenocytes (GLUT-4): up-regulated

APC-3: isolated polypeptide of SEQ ID NO. 5, hormone-like protein expressed in human spleen, testis, small intestine, colon and kidney (MSSFCLALEVFHPTVSSGRSRPYQIASLETPVLNYSFHHRR; Homo sapiens APC3)
TNFα levels (TNFα): reduced both inflammatory cytokines levels in a dose-dependent manner | IL-1β levels (IL-1β): reduced both inflammatory cytokines levels in a dose-dependent manner
